In ChEMBL document CHEMBL1129820, “1,4-Bis-(2,3-epoxypropylamino)-9,10-anthracenedione and related compounds as potent antifungal and antimicrobial agents” (Bioorg Med Chem Lett, 1997) one finds MIC and EC50 data, which are given here for eight compounds.

Each structure is given as a SMILES string. ≈ marks a conversion by molar mass, not a printed value.

Assay [1] deals with Pseudomonas fluorescens. Put plainly: The compound was evaluated for antibacterial activity against Pseudomonas fluorescence at pH 5.5. The assay is classed as functional.
Assay [2] relates to Pseudomonas fluorescens. Description: The compound was evaluated for antibacterial activity against Pseudomonas fluorescence at pH 7.0. The assay is classed as functional.
Assay [3] deals with Pseudomonas fluorescens. Put plainly: The compound was evaluated for antibacterial activity against Pseudomonas fluorescence at pH 8.0. Format: functional.
In assay [4] the test system is Pseudomonas fluorescens. Description: The compound was evaluated for antibacterial activity against Pseudomonas fluorescence at pH 9.0. The assay is classed as functional.
Assay [5] relates to Aspergillus niger. Description: The compound was evaluated for antifungal activity against Aspergillus niger at pH 7.5. Format: functional.
In assay [6] the test system is Escherichia coli. Description: The compound was evaluated for antibacterial activity against Escherichia coli at pH 7.0. The assay is classed as functional.
Assay [7] concerns Globisporangium ultimum. Description: The compound was evaluated for antifungal activity against the fungi Pythium ultimum. Format: functional, organism-based.
The test system of assay [8] is Pseudomonas aeruginosa. Put plainly: The compound was evaluated for antibacterial activity against Pseudomonas aeruginosa at pH 7.0. The assay is classed as functional.
The test system of assay [9] is Pseudomonas fluorescens. Put plainly: The compound was evaluated for antibacterial activity against the Pseudomonas fluorescence at pH 7.0. Format: functional.
For assay [10], the system named is Staphylococcus aureus. Put plainly: The compound was evaluated for antibacterial activity against Staphylococcus aureus at pH 7.0. The assay is classed as functional.
Assay [11] has as its system Aureobasidium pullulans. Put plainly: The compound was evaluated for antifungal activity against Aureobasidium pullulans at pH 7.5. The assay is classed as functional.
Assay [12] relates to Dolichospermum flos-aquae. Put plainly: The compound was evaluated for antialgal activity against Anabaena flos-aquae. Format: functional.
The test system of assay [13] is Auxenochlorella pyrenoidosa. Description: The compound was evaluated for antialgal activity against Chlorella pyrenoidosa. The assay is classed as functional.
For assay [14], the system named is Aureobasidium pullulans. Put plainly: The compound was evaluated for antifungal activity against Aureobasidium pullulans at pH 7.5 (end point 25 p.p.m. in separate test). The assay is classed as functional.
Assay [15] has as its system Aspergillus niger. Description: The compound was evaluated for antifungal activity against Aspergillus niger at pH 7.5 (end point 0.25 p.p.m. in separate test). The assay is classed as functional.
Assay [16] concerns Amorphotheca resinae. Put plainly: The compound was evaluated for antifungal activity against Cladosporium resinae at pH 7.5 (end point <0.25 p.p.m. in separate test). The assay is classed as functional.
The test system of assay [17] is Chaetomium globosum. Description: The compound was evaluated for antifungal activity against Chaetomium globosum at pH 7.5 (end point <0.25 p.p.m. in separate test). Format: functional.
For assay [18], the system named is Talaromyces funiculosus. Put plainly: The compound was evaluated for antifungal activity against Penicillium funiculosum at pH 7.5 (end point 2.5 p.p.m. in separate test). The assay is classed as functional.
In assay [19] the test system is Phytophthora capsici. Description: The compound was evaluated for antifungal activity against the fungi Phytophthora capsici. Format: functional.
The subject of assay [20] is Pseudomonas fluorescens. Description: The compound was evaluated for antibacterial activity against Pseudomonas fluorescence at pH 4.0 in trypticase soy broth medium. Format: functional.
For assay [21], the system named is Pseudomonas fluorescens. Put plainly: The compound was evaluated for antibacterial activity against Pseudomonas fluorescence at pH 7.0 in trypticase soy broth medium. The assay is classed as functional.
Assay [22] has as its system Pseudomonas fluorescens. Put plainly: The compound was evaluated for antibacterial activity against Pseudomonas fluorescence at pH 9.0 in trypticase soy broth medium. The assay is classed as functional.
Assay [23] deals with Pseudomonas fluorescens. Description: The compound was evaluated for antifungal activity against Pseudomonas fluorescence in separate test(endopoint 0.25 p.p.m.) at pH 7.0. Format: functional.
In assay [24] the test system is Staphylococcus aureus. Description: The compound was evaluated for antifungal activity against Staphylococcus aureus in separate test(endopoint 0.25 p.p.m.) at pH 7.0. Format: functional.
Assay [25] concerns Aureobasidium pullulans. Put plainly: The compound was evaluated for antifungal activity against Aureobasidium pullulans at pH 7.5 (end point <0.25 p.p.m. in separate test). The assay is classed as functional.
The test system of assay [26] is Amorphotheca resinae. Description: The compound was evaluated for antifungal activity against Cladosporium resinae at pH 7.5 (end point 2.5 p.p.m. in separate test). The assay is classed as functional.
For assay [27], the system named is Pseudomonas fluorescens. Description: The compound was evaluated for antibacterial activity against Pseudomonas fluorescence at pH 4.0. The assay is classed as functional.
Assay [28] has as its system Chaetomium globosum. Put plainly: The compound was evaluated for antifungal activity against Chaetomium globosum at pH 7.5 (end point 2.5 p.p.m. in separate test). The assay is classed as functional.

On to `O=C1c2ccccc2C(=O)c2c(NCC(Cl)CO)ccc(NCC(Cl)CO)c21` (stereo not given), for which the MIC (in general, the least concentration at which growth counts as inhibited) in [1] is greater than 100 µg/mL; in assay [2] it was 25 µg/mL (≈ 59.1 µM); in assay [3], 50 µg/mL (≈ 118 µM); in assay [4] it was 50 µg/mL (≈ 118 µM).
For the compound `O=C1c2ccccc2C(=O)c2c(OCC3CO3)ccc(OCC3CO3)c21` (stereo not given), the MIC is greater than 250 µg/mL in assay [5]; greater than 250 µg/mL in assay [6]; greater than 250 µg/mL in [8]; 4 µg/mL (≈ 11.4 µM) in assay [9]; greater than 250 µg/mL in [10]; greater than 250 µg/mL in assay [11]. In [7], this compound came in with an EC50 of 3.6 p.p.m.
Take `Cn1sc(Cl)cc1=O.Cn1sccc1=O`: the MIC was determined as 0.1 µg/mL in assay [12] and 0.3 µg/mL in assay [13].
Turning to `O=C1c2ccccc2C(=O)c2c(NCC3CO3)ccc(NCC3CO3)c21` (stereo not given), the MIC in assay [14] is 0.8 µg/mL (≈ 2.28 µM); in assay [12], less than 2 µg/mL; in assay [15] it was 0.4 µg/mL (≈ 1.14 µM); in assay [13], less than 2 µg/mL; in assay [16], 0.4 µg/mL (≈ 1.14 µM); in assay [17], 0.4 µg/mL (≈ 1.14 µM). For the same compound, the MIC is 250 µg/mL (≈ 714 µM) in assay [6]; 0.8 µg/mL (≈ 2.28 µM) in assay [18]; 0.2 µg/mL (≈ 0.571 µM) in assay [19]; 63 µg/mL (≈ 180 µM) in [8]; 0.2 µg/mL (≈ 0.571 µM) in assay [20]; 0.025 µg/mL (≈ 0.0714 µM) in assay [1]. The MIC in [2] is 0.05 µg/mL (≈ 0.143 µM); in assay [21], 0.2 µg/mL (≈ 0.571 µM); in assay [3], 0.05 µg/mL (≈ 0.143 µM); in assay [4] it was 0.05 µg/mL (≈ 0.143 µM); in [22], 0.2 µg/mL (≈ 0.571 µM); in assay [9] it was less than 0.13 µg/mL. The minimal inhibitory concentration (MIC) is 0.2 µg/mL (≈ 0.571 µM) in [23], less than 0.13 µg/mL in assay [10] and 0.2 µg/mL (≈ 0.571 µM) in assay [24]. In addition, the EC50 in assay [7] amounted to 0.03 p.p.m.
Turning to `O=C1c2ccccc2C(=O)c2c(NCC(Br)CO)ccc(NCC(Br)CO)c21` (stereo not given), the MIC in [1] is 100 µg/mL (≈ 195 µM); in assay [2], 50 µg/mL (≈ 97.6 µM); in assay [3] it was 0.4 µg/mL (≈ 0.781 µM); in assay [4], 0.2 µg/mL (≈ 0.39 µM).
On to `CCCCNC(=O)OC#CCI`, for which the MIC in [25] amounted to 0.1 µg/mL (≈ 0.356 µM); in assay [15], 1.6 µg/mL (≈ 5.69 µM); in assay [26], 25 µg/mL (≈ 88.9 µM); in assay [18] it was 0.8 µg/mL (≈ 2.85 µM); in [27] it was 50 µg/mL (≈ 178 µM); in assay [2] it was 0.2 µg/mL (≈ 0.712 µM). Also, the MIC in assay [4] came to 50 µg/mL (≈ 178 µM); in [28] it was 1.6 µg/mL (≈ 5.69 µM).
In turn, `CCCCCCCCn1sc(Cl)c(Cl)c1=O` showed an MIC in [9] of less than 0.2 µg/mL.
`COCC(=O)N(c1c(C)cccc1C)C(C)C(=O)OC` (stereo not given) [METALAXYL] yielded an MIC in assay [19] of 0.4 µg/mL (≈ 1.43 µM). For the same compound, in assay [7], the EC50 amounted to 0.017 p.p.m.
